Structures can show the parent of a compound that is named as a salt.
Key:
P-388 leukemia cells = assay: Antitumor activity against P-388 leukemia cells (i.p. implanted, i.v. drug); type: in vivo, BDF1 mice; conditions: i.v., 30-day observation; for response vs control in vivo at 20 mg/kg / response vs control in vivo at 40 mg/kg / response vs control in vivo at 80 mg/kg / response vs control in vivo at 60 mg/kg / response vs control in vivo at 30 mg/kg / response vs control in vivo at 40 mg/kg/day / response vs control in vivo at 20 mg/kg/day: Mus musculus, P388, iv, 720 h, read-out: T/C of MST; for response vs control in vivo at 20 mg/kg: dose b: 20 mg/kg/d × 3 (days 1, 5, 9); for response vs control in vivo at 40 mg/kg: dose c: 40 mg/kg/d × 3 (days 1, 5, 9); for response vs control in vivo at 60 mg/kg: dose e: 60 mg/kg/d × 3 (days 1, 5, 9); for response vs control in vivo at 30 mg/kg: dose j: 30 mg/kg/d × 3 (days 1, 5, 9); for response vs control in vivo at 40 mg/kg/day: dose c': 40 mg/kg/d × 2 (days 1, 5); for response vs control in vivo at 20 mg/kg/day: dose b': 20 mg/kg/d × 2 (days 1, 5)
Protocol: BDF1 mice were implanted intraperitoneally with P-388 leukemia cells at a rate of 1×10^6 cells/mouse, and each drug to be tested was administered intravenously on the first, fifth and ninth days, or on the first and fifth days after the implantation. […] The T/C (%) was calculated based on the following equation: [formula]
The drugs tested were as follows: solutions prepared by dissolving each of compound Nos. 34, 36 and 43 to 46 in physiological saline; suspension or solutions prepared by dissolving each of compound Nos. 35, 38 and 49 to 55 in dimethylacetamide, followed by adding thereto a small amount of a surface active agent (e.g., Tween-80) and then physiological saline; and suspension or solutions prepared by mixing each of the other compounds and a small amount of a surface active agent (e.g., Tween-80), followed by adding thereto physiological saline.

[1] = Acute toxicity (LD50, single intravenous administration); set-up: species or system day mice; conditions: mouse, in vivo, mice, single i.v.
Excerpt: In Table 15 are shown acute toxicity values (LD50, mg/kg) in day mice in the case of intravenously administering (once) each of the compounds of this invention in the form of preparations shown in the Preparation Examples shown in Table 16.

[2] = dose f: 80 mg/kg/d × 3 (days 1, 5, 9)

COC1C(N)C(C)OC(OC2C(Oc3cccc4c(OC(=O)C(C)CN)c5c(=O)oc6ccc(C)c7c(=O)oc(c34)c5c67)OC(C)C3OC(c4ccccc4)OC32)C1O (stereo not drawn) [Compound 34, 6-O-(β-amino-isobutyryl)-3',4'-benzylidene-4"-epiamino-4"-deoxy-chartreusin dihydrochloride]
response vs control in vivo at 20 mg/kg (P-388 leukemia cells): 140%
response vs control in vivo at 40 mg/kg (P-388 leukemia cells): 219%
LD50 ([1]; Preparation Example 8): ≥ 40 mg/kg

CCOCCC(=O)Oc1c2cccc(OC3OC(C)C4OC(c5ccccc5)OC4C3OC3OC(C)C(N)C(OC)C3O)c2c2oc(=O)c3c(C)ccc4oc(=O)c1c2c43 (stereo not shown) [Compound 35]
response vs control in vivo at 20 mg/kg (P-388 leukemia cells): 188%
response vs control in vivo at 40 mg/kg (P-388 leukemia cells): 244%
LD50 ([1]; Preparation Example 6): ≥ 40 mg/kg

COC1C(N)C(C)OC(OC2C(Oc3cccc4c(OC(=O)CCN5CCCC5)c5c(=O)oc6ccc(C)c7c(=O)oc(c34)c5c67)OC(C)C3OC(c4ccccc4)OC32)C1O (stereo not drawn) [Compound 36, 6-O-(β-1-pyrrolidinylpropionyl)-3',4'-O-benzylidene-4"-epiamino-4"-deoxy-chartreusin dihydrochloride]
response vs control in vivo at 20 mg/kg (P-388 leukemia cells): 168%
LD50 ([1]; Preparation Example 8): ≥ 20 mg/kg

COC1C(N)C(C)OC(OC2C(Oc3cccc4c(OC(=O)CCCCCNC(=O)C(F)(F)F)c5c(=O)oc6ccc(C)c7c(=O)oc(c34)c5c67)OC(C)C3OC(c4ccccc4)OC32)C1O (stereo not shown) [Compound 37, 6-O-(n-trifluoroacetyl-6-amino-n-hexanoyl)-3',4'-O-benzylidene-4"-epiamino-4"-deoxy-chartreusin hydrochloride]
response vs control in vivo at 20 mg/kg (P-388 leukemia cells): 148%
response vs control in vivo at 40 mg/kg (P-388 leukemia cells): 191%
LD50 ([1]; Preparation Example 1): ≥ 40 mg/kg

COC1C(N)C(C)OC(OC2C(Oc3cccc4c(OC(=O)CCNC=O)c5c(=O)oc6ccc(C)c7c(=O)oc(c34)c5c67)OC(C)C3OC(c4cccc(Br)c4)OC32)C1O (stereo not shown) [Compound 38]
response vs control in vivo at 80 mg/kg (P-388 leukemia cells; [2]): 133%
LD50 ([1]; Preparation Example 6): ≥ 80 mg/kg

COC1C(N)C(C)OC(OC2C(Oc3cccc4c(OC(=O)CC(C)C)c5c(=O)oc6ccc(C)c7c(=O)oc(c34)c5c67)OC(C)C3OC(c4ccccc4)OC32)C1O (stereo not shown) [Compound 39, 6-O-(3-methyl-n-butyryl)-3',4',-O-benzylidene-4"-epiamino-4"-deoxy-chartreusin hydrochloride]
response vs control in vivo at 40 mg/kg (P-388 leukemia cells): 207%
response vs control in vivo at 60 mg/kg (P-388 leukemia cells): 240%
LD50 ([1]; Preparation Example 9): ≥ 60 mg/kg

COC1C(N)C(C)OC(OC2C(Oc3cccc4c(OC(=O)C(C)CNC(=O)C(F)(F)F)c5c(=O)oc6ccc(C)c7c(=O)oc(c34)c5c67)OC(C)C3OC(c4ccccc4)OC32)C1O (stereo not shown) [Compound 40]
response vs control in vivo at 20 mg/kg (P-388 leukemia cells): 142%
response vs control in vivo at 40 mg/kg (P-388 leukemia cells): 219%
LD50 ([1]; Preparation Example 1): ≥ 40 mg/kg

COC1C(N)C(C)OC(OC2C(Oc3cccc4c(OC(=O)CC(C)NC(=O)C(F)(F)F)c5c(=O)oc6ccc(C)c7c(=O)oc(c34)c5c67)OC(C)C3OC(c4ccccc4)OC32)C1O (stereo not shown) [Compound 41]
response vs control in vivo at 40 mg/kg (P-388 leukemia cells): 187%
LD50 ([1]; Preparation Example 1): ≥ 40 mg/kg

COC1C(N)C(C)OC(OC2C(Oc3cccc4c(OC(=O)CCNC=O)c5c(=O)oc6ccc(C)c7c(=O)oc(c34)c5c67)OC(C)C3OC(c4ccccc4)OC32)C1O (stereo not shown) [Compound 42]
response vs control in vivo at 20 mg/kg (P-388 leukemia cells): 130%
response vs control in vivo at 40 mg/kg (P-388 leukemia cells): 199%
LD50 ([1]; Preparation Example 1): ≥ 40 mg/kg

CNCCC(=O)Oc1c2cccc(OC3OC(C)C4OC(c5ccccc5)OC4C3OC3OC(C)C(N)C(OC)C3O)c2c2oc(=O)c3c(C)ccc4oc(=O)c1c2c43 (stereo not shown) [Compound 43]
response vs control in vivo at 20 mg/kg (P-388 leukemia cells): 150%
response vs control in vivo at 40 mg/kg (P-388 leukemia cells): 230%
LD50 ([1]; Preparation Example 8): ≥ 40 mg/kg

CNCC(C)C(=O)Oc1c2cccc(OC3OC(C)C4OC(c5ccccc5)OC4C3OC3OC(C)C(N)C(OC)C3O)c2c2oc(=O)c3c(C)ccc4oc(=O)c1c2c43 (stereo not shown) [Compound 44]
response vs control in vivo at 20 mg/kg (P-388 leukemia cells): 138%
response vs control in vivo at 40 mg/kg (P-388 leukemia cells): 148%
LD50 ([1]; Preparation Example 8): ≥ 40 mg/kg

COC1C(N)C(C)OC(OC2C(Oc3cccc4c(OC(=O)C(CN)C(C)C)c5c(=O)oc6ccc(C)c7c(=O)oc(c34)c5c67)OC(C)C3OC(c4ccccc4)OC32)C1O (stereo not shown) [Compound 45]
response vs control in vivo at 30 mg/kg (P-388 leukemia cells): 131%
LD50 ([1]; Preparation Example 8): ≥ 30 mg/kg

COC1C(N)C(C)OC(OC2C(Oc3cccc4c(OC(=O)CCNC(=O)CN)c5c(=O)oc6ccc(C)c7c(=O)oc(c34)c5c67)OC(C)C3OC(c4ccccc4)OC32)C1O (stereo not shown) [Compound 46]
response vs control in vivo at 40 mg/kg (P-388 leukemia cells): 148%
LD50 ([1]; Preparation Example 8): ≥ 40 mg/kg

COC1C(N)C(C)OC(OC2C(Oc3cccc4c(OC(=O)CCC(C)=O)c5c(=O)oc6ccc(C)c7c(=O)oc(c34)c5c67)OC(C)C3OC(c4ccccc4)OC32)C1O (stereo not shown) [Compound 48]
response vs control in vivo at 20 mg/kg (P-388 leukemia cells): 166%
response vs control in vivo at 40 mg/kg (P-388 leukemia cells): 219%
LD50 ([1]; Preparation Example 1): ≥ 40 mg/kg

COC1C(N)C(C)OC(OC2C(Oc3cccc4c(OC(=O)C5CC5C)c5c(=O)oc6ccc(C)c7c(=O)oc(c34)c5c67)OC(C)C3OC(c4ccccc4)OC32)C1O (stereo not shown) [Compound 49]
response vs control in vivo at 40 mg/kg/day (P-388 leukemia cells): 153%
LD50 ([1]; Preparation Example 6): ≥ 40 mg/kg

COC1C(N)C(C)OC(OC2C(Oc3cccc4c(OC(=O)Cc5ccccc5)c5c(=O)oc6ccc(C)c7c(=O)oc(c34)c5c67)OC(C)C3OC(c4ccccc4)OC32)C1O (stereo not shown) [Compound 50]
response vs control in vivo at 20 mg/kg/day (P-388 leukemia cells): 165%
response vs control in vivo at 40 mg/kg/day (P-388 leukemia cells): 208%
LD50 ([1]; Preparation Example 7): ≥ 40 mg/kg

COc1cccc(C(=O)Oc2c3cccc(OC4OC(C)C5OC(c6ccccc6)OC5C4OC4OC(C)C(N)C(OC)C4O)c3c3oc(=O)c4c(C)ccc5oc(=O)c2c3c54)c1 (stereo not shown) [Compound 51, 6-O-(m-methoxybenzoyl)-3',4'-O-benzylidene-4"-epiamino-4"-deoxy-chartreusin]
response vs control in vivo at 20 mg/kg (P-388 leukemia cells): 185%
response vs control in vivo at 40 mg/kg (P-388 leukemia cells): 244%
LD50 ([1]; Preparation Example 6): ≥ 40 mg/kg

COC1C(N)C(C)OC(OC2C(Oc3cccc4c(OC(=O)c5ccc(Cl)cc5)c5c(=O)oc6ccc(C)c7c(=O)oc(c34)c5c67)OC(C)C3OC(c4ccccc4)OC32)C1O (stereo not shown) [Compound 52]
response vs control in vivo at 20 mg/kg (P-388 leukemia cells): 167%
LD50 ([1]; Preparation Example 6): ≥ 20 mg/kg

COC1C(N)C(C)OC(OC2C(Oc3cccc4c(OC(=O)c5cccc(C(F)(F)F)c5)c5c(=O)oc6ccc(C)c7c(=O)oc(c34)c5c67)OC(C)C3OC(c4ccccc4)OC32)C1O (stereo not shown) [Compound 53]
response vs control in vivo at 20 mg/kg (P-388 leukemia cells): 131%
response vs control in vivo at 40 mg/kg (P-388 leukemia cells): 165%
LD50 ([1]; Preparation Example 6): ≥ 40 mg/kg

CCCCCC(=O)Oc1c2cccc(OC3OC(C)C4OC(c5ccccc5)OC4C3OC3OC(C)C(N)C(OC)C3O)c2c2oc(=O)c3c(C)ccc4oc(=O)c1c2c43 (stereo not shown) [Compound 54]
response vs control in vivo at 20 mg/kg/day (P-388 leukemia cells): 165%
LD50 ([1]; Preparation Example 7): ≥ 40 mg/kg

COC1C(N)C(C)OC(OC2C(Oc3cccc4c(OC(=O)CCNC(=O)c5ccccc5)c5c(=O)oc6ccc(C)c7c(=O)oc(c34)c5c67)OC(C)C3OC(c4cccc(F)c4)OC32)C1O (stereo not shown) [Compound 55]
response vs control in vivo at 80 mg/kg (P-388 leukemia cells; [2]): 133%
LD50 ([1]; Preparation Example 6): ≥ 80 mg/kg

COC1C(N)C(C)OC(OC2C(Oc3cccc4c(OC(=O)C(C)CNC(=O)C(F)(F)F)c5c(=O)oc6ccc(C)c7c(=O)oc(c34)c5c67)OC(C)C3OC(C)(C)OC32)C1O (stereo not shown) [Compound 56]
response vs control in vivo at 80 mg/kg (P-388 leukemia cells; [2]): 138%
LD50 ([1]; Preparation Example 1): ≥ 80 mg/kg

COC1C(O)C(C)OC(OC2C(Oc3cccc4c(OC(=O)c5cccs5)c5c(=O)oc6ccc(C)c7c(=O)oc(c34)c5c67)OC(C)C3OC(C)(C)OC32)C1O (stereo not shown) [Compound 62]
T/C of MST (P-388 leukemia cells; [2]): 131%
LD50 ([1]; Preparation Example 2): ≥ 80 mg/kg

COC1C(O)C(C)OC(OC2C(Oc3cccc4c(OC(=O)c5cc6cc(OCc7ccccc7)ccc6[nH]5)c5c(=O)oc6ccc(C)c7c(=O)oc(c34)c5c67)OC(C)C3OC(c4ccccc4)OC32)C1O (stereo not shown) [Compound 101]
response vs control in vivo at 60 mg/kg (P-388 leukemia cells): 191%
LD50 ([1]; Preparation Example 2): ≥ 60 mg/kg

COC1C(O)C(C)OC(OC2C(Oc3cccc4c(OC(=O)c5cc6cc(O)ccc6[nH]5)c5c(=O)oc6ccc(C)c7c(=O)oc(c34)c5c67)OC(C)C3OC(c4ccccc4)OC32)C1O (stereo not shown) [Compound 102]
response vs control in vivo at 60 mg/kg (P-388 leukemia cells): 256%
response vs control in vivo at 30 mg/kg (P-388 leukemia cells): 233%
LD50 ([1]; Preparation Example 1): ≥ 60 mg/kg

COC1C(O)C(C)OC(OC2C(Oc3cccc4c(OC(=O)c5ocnc5C)c5c(=O)oc6ccc(C)c7c(=O)oc(c34)c5c67)OC(C)C3OC(c4ccccc4)OC32)C1O (stereo not shown) [Compound 103]
response vs control in vivo at 60 mg/kg (P-388 leukemia cells): 236%
response vs control in vivo at 30 mg/kg (P-388 leukemia cells): 210%
LD50 ([1]; Preparation Example 2): ≥ 60 mg/kg

COC1C(O)C(C)OC(OC2C(Oc3cccc4c(OC(=O)CCCc5c[nH]c6ccccc56)c5c(=O)oc6ccc(C)c7c(=O)oc(c34)c5c67)OC(C)C3OC(c4ccccc4)OC32)C1O (stereo not shown) [Compound 104]
response vs control in vivo at 20 mg/kg (P-388 leukemia cells): 185%
response vs control in vivo at 60 mg/kg (P-388 leukemia cells): 256%
response vs control in vivo at 30 mg/kg (P-388 leukemia cells): 219%
LD50 ([1]; Preparation Example 2): ≥ 60 mg/kg

Reference: US4927919A, “Chartreusin derivatives and salts thereof” (Ishihara Sangyo Kaisha, Ltd., priority 1985, dated 1990)
